Laboratory results: article PMC5508519 (Bioorganic & medicinal chemistry letters, 2017)

What was measured:
[1] = biological target: T1, hM4 (Homo sapiens, UniProt P08173); assay: calcium mobilization assay, hM4 CHO cells co-transfected with Gqi5, ACh EC80; type: cell-based; conditions: SAR text on Table 2
T1 sequence (P08173 1-479): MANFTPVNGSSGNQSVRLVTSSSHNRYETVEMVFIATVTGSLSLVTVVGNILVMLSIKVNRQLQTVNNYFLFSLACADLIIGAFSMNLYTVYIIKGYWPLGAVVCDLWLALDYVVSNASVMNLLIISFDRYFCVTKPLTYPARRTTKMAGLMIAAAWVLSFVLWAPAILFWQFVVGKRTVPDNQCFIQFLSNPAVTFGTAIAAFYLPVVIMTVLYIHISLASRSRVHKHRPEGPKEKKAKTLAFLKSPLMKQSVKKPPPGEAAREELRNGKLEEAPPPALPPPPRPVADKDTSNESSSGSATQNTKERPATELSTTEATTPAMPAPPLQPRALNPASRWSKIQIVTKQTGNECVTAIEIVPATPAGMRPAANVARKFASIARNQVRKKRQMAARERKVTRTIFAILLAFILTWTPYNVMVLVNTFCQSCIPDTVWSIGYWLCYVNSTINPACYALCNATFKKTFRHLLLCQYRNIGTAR

[2] = biological target: T2, M1 (Homo sapiens, UniProt P11229); assay: calcium mobilization assay, hM1 CHO cells, approximate EC80 of ACh; type: cell-based; conditions: n = 1
T2 sequence (P11229 1-460): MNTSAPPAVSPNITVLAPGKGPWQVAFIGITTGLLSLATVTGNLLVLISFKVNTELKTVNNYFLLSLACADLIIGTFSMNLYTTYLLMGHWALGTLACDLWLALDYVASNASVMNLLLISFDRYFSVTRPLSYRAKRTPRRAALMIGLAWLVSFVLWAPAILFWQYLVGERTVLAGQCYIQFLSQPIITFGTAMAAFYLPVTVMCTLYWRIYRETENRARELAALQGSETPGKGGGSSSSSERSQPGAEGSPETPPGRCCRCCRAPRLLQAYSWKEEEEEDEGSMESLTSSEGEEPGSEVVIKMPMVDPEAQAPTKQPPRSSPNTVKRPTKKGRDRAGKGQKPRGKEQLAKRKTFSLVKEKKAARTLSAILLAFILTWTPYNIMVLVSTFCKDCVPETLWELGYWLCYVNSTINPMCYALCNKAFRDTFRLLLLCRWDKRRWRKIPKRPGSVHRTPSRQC

[3] = predicted hepatic clearance from human microsomal CLint; type: in vitro ADME; conditions: based on CLint data from microsomes
[4] = biological target: T3, M5 (Homo sapiens, UniProt P08912); assay: calcium mobilization assay, hM5 CHO cells, approximate EC80 of ACh; type: cell-based; conditions: n = 1
T3 sequence (P08912 1-532): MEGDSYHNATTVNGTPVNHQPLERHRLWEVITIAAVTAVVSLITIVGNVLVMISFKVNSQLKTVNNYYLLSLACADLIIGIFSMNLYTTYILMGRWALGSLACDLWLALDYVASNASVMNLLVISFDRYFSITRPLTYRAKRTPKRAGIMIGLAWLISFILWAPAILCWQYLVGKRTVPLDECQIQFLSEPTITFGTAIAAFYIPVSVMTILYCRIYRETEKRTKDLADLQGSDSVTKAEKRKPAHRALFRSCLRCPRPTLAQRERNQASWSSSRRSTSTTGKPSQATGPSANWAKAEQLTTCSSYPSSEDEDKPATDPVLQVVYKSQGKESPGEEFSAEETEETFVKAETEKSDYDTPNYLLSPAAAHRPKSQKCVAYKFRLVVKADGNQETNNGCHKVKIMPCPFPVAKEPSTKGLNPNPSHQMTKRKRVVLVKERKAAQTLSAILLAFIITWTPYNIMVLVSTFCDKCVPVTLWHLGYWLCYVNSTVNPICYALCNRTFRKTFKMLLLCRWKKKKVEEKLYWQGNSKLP

Row | SMILES | M4 inhibitory activity (in words) [1] | predicted hepatic clearance CLhep (rat) [mL/min/kg] | predicted hepatic clearance CLhep (human) [3] [mL/min/kg] | also measured
1 | COc1ccc2c(c1)CN(C(=O)C1CCN(c3cc(Oc4ccc(F)cc4F)ncn3)CC1)CC2 [Compound 17c] | retained M4 inhibitory activity | – | – | –
2 | O=C(C1CCN(c2cc(Oc3ccc(F)cc3F)ncn2)CC1)N1Cc2ccccc2C1 [Compound 17e, (1-(6-(2,4-difluorophenoxy)pyrimidin-4-yl)piperidin-4-yl)(isoindolin-2-yl)methanone] | – | 36.5 | 5.56 | M1 % ACh Min [2]: 18.2 % ACh Min; predicted CLhep with inclusion of binding terms in the well-stirred model (rat): 5.93 mL/min/kg; M5 % ACh Min [4]: 42.6 % ACh Min
3 | COc1ccc2c(c1)CCN(C(=O)C1CCN(c3cc(Oc4ccc(F)cc4F)ncn3)CC1)C2 [Compound 17b] | retained M4 inhibitory activity | – | – | –
4 | O=C(C1CCN(c2cc(Oc3ccc(F)cc3F)ncn2)CC1)N1CCC2CCCCC2C1 (stereo not shown) [Compound 17d] | retained M4 inhibitory activity | – | – | –
5 | CCc1ccc(Oc2cc(N3CCC(C(=O)N4CCc5ccccc5C4)CC3)ncn2)cc1 [Compound 5] | – | 68.6 | 20.3 | –
